Usually IC50 stands for the concentration that inhibits the measured activity by half.

The test system of one data set is Helicoverpa armigera. Details: method as in PMID 17685437. To be noted: pyrethroids with a polyfluorobenzyl group instead of the phenoxybenzyl group; ref [48]; cited from earlier work.
In a further data set the test system is Gambiae Complex. To be noted: ID 100156; F0, larval collection, 5/2009-4/2010, Chano, Ethiopia; WHO Bioassay 1998; ref Massebo F et al. Parasites Vectors. 2013;6; cited from earlier work.
Another data set concerns Ae. aegypti. Briefly: WHO adult susceptibility test on field samples, Ae. aegypti. The class given is in vivo, Aedes aegypti. As to conditions: standard diagnostic doses. The text has this: The analyses conducted using data from An. gambiae (s.l.) samples were repeated using data from the An. funestus subgroup, An. arabiensis, An. coluzzii, An. funestus and An. gambiae samples (Additional file 2). The same approach was also used for susceptibility test data from Aedes albopictus and Ae. aegypti to investigate whether the same relationships could be detected in these vectors of arboviruses, as detailed in Additional file 3.
Additional File 3: Cross-resistance to pyrethroids within wild populations of Aedes vectors […]
If structural diversity within the pyrethroids is also associated with divergence in resistance within the Aedes vectors of arboviruses, this would lend weight to the findings for malaria vectors presented in the main manusc ript. Like the Anopheles vectors, target-site mutations and metabolic resistance are thought to be the main resistance mechanisms in Aedes mosquitoes. At least ten mutations in the Aedes aegypti Vgsc gene have been identified and the most widespread mutation, […]
mutations and is also associated with DDT resistance. More recently, the V1016G mutation has been found in Ae. albopictus in Viet Nam and Italy, and both this allele and the F1534C and F1534S […]
expression of cytochrome P450s has also been implicated in pyrethroid resistance within Aedes mosquitoes and there is evidence that metabolic resistance can confer cross -resistance to multiple pyrethroids. For example, over-expression of CYP9J28 is associated with metabolic resistance to […]
target site- and P450-mediated resistance in Ae. aegypti strains found variation in resistance to seven pyrethroids and hypothesised that some patterns of resistance could be linked to structural differences, but also noted that general conclusions are challenging to make without a greater number of compounds with a single modification to compare. No studies of structure activity relationships using a wide range of pyrethroids and P450s from Aedes mosquitoes have been conducted to-date, but data on resistance in wild populations are available. A wider range of pyrethroids are more typically tested by studies of resistance in Aedes vectors, compared to Anopheles vectors, although these studies are also more varied in terms of diagnostic dose, bioass ay method and life cycle stage, making comparisons across studies difficult. Here we selected studies that used a common experimental design and investigated correlations in resistance to pairs of pyrethroids mirroring part of the work on Anopheles vectors presented in the main manuscript.
We identified all instances within a public insecticide resistance database where an Aedes field sample had been subdivided among tests for different pyrethroids. We then identified the most commonly used bioassay type across the new pyrethroid dataset, which was the WHO adult susceptibility test as described for malaria vectors, and the most commonly used diagnostic dose for […]
each compound (Table S2). […]
removed. Paired results were then extracted, and the mean values for the Pearson’s correlation coefficient were calculated for each pyrethroid pair using 1,000 bootstaps in SPSS Statistics v25.
Table S5. Diagnostic doses and data volumes for each pyrethroid.
Pyrethroid Most common dose Number of data points
The number of data points available for each pyrethroid from an Ae. aegypti sample that was used to test at least one other pyrethroid, using standard WHO susceptibility tests and standard diagnostic doses, is given.

For a further data set, the system named is Anopheles sinensis. Details: method as in PMID 24159535. To be noted: resistance ratios using LC50 values from a susceptible strain; most susceptible to bifenthrin, cyfluthrin and etofenprox, in that order; ref [55]; cited from earlier work.
Data set [1] relates to An. funestus strain, FUMOZ-R. The arrangement: method as in PMID 26930058. To be noted: strain with upregulated P450 levels without any target-site mutations; ref [47]; cited from earlier work.
A further data set relates to CYP6P2. As to conditions: read-out: IC50 CYP6P2; inhibition of diethoxyfluorescein metabolism; footnote b; ref Yunta et al. 2019[10]; cited from earlier work.
The next data set concerns the target T1, CYP6Z2 (Anopheles gambiae, UniProt Q7PNB5).
T1 sequence (Q7PNB5 1-492): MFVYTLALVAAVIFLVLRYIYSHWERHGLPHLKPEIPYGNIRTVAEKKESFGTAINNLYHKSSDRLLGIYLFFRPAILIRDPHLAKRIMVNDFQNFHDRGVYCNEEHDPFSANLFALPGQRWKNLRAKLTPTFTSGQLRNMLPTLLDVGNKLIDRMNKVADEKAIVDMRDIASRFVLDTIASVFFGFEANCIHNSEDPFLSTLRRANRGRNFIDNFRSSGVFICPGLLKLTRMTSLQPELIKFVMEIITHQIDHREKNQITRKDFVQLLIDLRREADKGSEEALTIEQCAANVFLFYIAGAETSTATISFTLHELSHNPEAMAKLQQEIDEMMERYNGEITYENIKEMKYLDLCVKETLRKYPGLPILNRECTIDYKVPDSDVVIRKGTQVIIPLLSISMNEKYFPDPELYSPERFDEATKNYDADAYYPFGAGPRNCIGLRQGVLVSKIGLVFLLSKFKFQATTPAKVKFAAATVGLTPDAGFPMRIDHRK
T1 sequence (Q86QH5 1-679 partner): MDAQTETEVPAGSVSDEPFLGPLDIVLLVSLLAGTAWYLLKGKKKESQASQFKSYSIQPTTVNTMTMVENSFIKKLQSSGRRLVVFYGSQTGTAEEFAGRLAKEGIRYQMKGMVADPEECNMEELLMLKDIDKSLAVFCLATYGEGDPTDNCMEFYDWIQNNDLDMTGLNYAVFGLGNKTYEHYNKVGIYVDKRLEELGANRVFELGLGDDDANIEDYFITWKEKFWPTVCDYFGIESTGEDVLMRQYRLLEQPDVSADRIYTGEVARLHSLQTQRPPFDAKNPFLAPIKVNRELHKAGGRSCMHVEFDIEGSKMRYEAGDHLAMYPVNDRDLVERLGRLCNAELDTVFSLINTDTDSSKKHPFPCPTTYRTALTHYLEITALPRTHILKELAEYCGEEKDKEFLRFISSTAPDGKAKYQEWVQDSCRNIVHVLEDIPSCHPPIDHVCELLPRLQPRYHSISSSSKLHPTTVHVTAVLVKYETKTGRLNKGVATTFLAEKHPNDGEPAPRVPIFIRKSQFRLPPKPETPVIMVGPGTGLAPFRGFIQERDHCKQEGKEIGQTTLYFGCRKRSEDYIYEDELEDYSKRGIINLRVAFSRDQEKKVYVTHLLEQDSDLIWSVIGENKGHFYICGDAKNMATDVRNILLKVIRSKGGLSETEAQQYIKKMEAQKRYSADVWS
Briefly: Inhibition screening of pyrethroids, diethoxyfluorescein, CYP6Z2. The data set is classed as biochemical.

The next data set deals with T2, CYP6Z3 (Anopheles gambiae, UniProt Q86LT6, H411Y/S209G/W396L).
T2 sequence (Q86LT6 1-492 S209G/W396L/H411Y): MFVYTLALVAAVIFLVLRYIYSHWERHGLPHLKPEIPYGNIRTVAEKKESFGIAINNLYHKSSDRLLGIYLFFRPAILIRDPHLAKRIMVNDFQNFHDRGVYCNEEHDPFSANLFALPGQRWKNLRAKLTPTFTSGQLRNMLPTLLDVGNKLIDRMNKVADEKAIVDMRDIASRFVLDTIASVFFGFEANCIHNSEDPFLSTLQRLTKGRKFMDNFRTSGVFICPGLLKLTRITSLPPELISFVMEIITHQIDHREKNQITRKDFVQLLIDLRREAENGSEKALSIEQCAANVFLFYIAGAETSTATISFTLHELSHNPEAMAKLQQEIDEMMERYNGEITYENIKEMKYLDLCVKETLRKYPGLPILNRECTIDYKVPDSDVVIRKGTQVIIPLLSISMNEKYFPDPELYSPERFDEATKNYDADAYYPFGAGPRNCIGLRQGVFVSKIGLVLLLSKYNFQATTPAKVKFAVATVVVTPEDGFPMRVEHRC
T2 sequence (Q86QH5 1-679 partner): T1 sequence (Q86QH5 1-679 partner)
Briefly: Inhibition screening of pyrethroids, diethoxyfluorescein, CYP6Z3. The class given is biochemical. The text has this:
(§1) Cytochrome P450 inhibition assays using fluorogenic probe substrates have become commonplace in drug discovery screening cascades and are a rapid method of screening for insecticide interactions with mosquito P450s to predict insecticide binding, metabolism, cross-resistance and synergism. In this study, the half maximal inhibitory concentration (IC50), which provides a value for inhibition of each P450 by each pyrethroid (also referred to as ‘binding affinity’), and the percentage depletion, which gives a value for metabolism of each pyrethroid by each P450 (also referred to as vulnerability to metabolic attack), were both included as parameters to establish a P450s structural activity relationship model. This model was used to understand both the chemistry of the pyrethroids and the interaction with mosquito P450s that function as monooxygenases in metabolic resistance, to predict cross-resistance liabilities in vivo. […] A low percentage depletion indicates low metabolism of the pyrethroid, which means that it may be less vulnerable to resistance mediated by P450s.
(§2) In addition, inhibition activity data for these pyrethroids exposed to CYP6Z3 from the An. gambiae Kisumu strain were also generated (Additional file 1).
1. Preparation of An. gambiae CYP6Z3 and cloning
Total RNA was extracted with Arcturus PicoPure Kit (Applied Biosystems, USA) from ten adult An. gambiae mosquitoes from the Kisumu strain [1]. Complementary DNA was prepared using Superscript III (Invitrogen) with an oligo (dT)20 primer and used as a template for amplifying full -length AgCyp6z3 with KOD DNA polymerase (Merk Chemicals) . The gene-specific primers used in these high -fidelity PCRs (Table S1) were designed according to the reference An. gambiae PEST CYP6Z3 genome sequence (Accession number AY193727) The PCR product was ligated into pGEM T-easy vector (Promega) and sequenced on both strands. Consistent with the high frequency of polymorphism in An. gambiae P450s [2](Martin Nature Ref) there were 36 single nucleotide polymorphism (SNPs) compared with the reference sequence, of which three produced amino acid changes, S209G, W396L, and H411Y. For expression, the ompA leader sequence (ompA) was engineered onto the amino - terminus of the AgCyp6z3 gene to direct the P450 into the E. coli […] during expression as previously described. The ompA-leader was fused to AgCyp6z3 cDNA in frame with AgCyp6z3 initiation codon by fusion PCR using High fidelity Phusion polymerase (Scientific). The ompA AgCyp6z3 fusion was flanked at the 5′ and 3′ ends with NdeI and EcoR1, respectively for ligation into NdeI/EcoRI linearised pB13 (pCWori+).
Table S1. Primers used for amplification of CYP6Z3 and in vitro functional characterisation […]
ompA+2 Forward […]
ompA+2 CYP6Z3 fusion […]
2. Preparation of membranes expressing P450 and AgCPR
To express functional P450, AgCyp6z3 cloned into pB13 plasmid was co-transformed into E. coli JM109 cells with An. gambiae NADPH-cytochrome P450 reductase (AgCPR-pACYC). The P450 and the AgCPR were previously fused with ompA and pelB leader sequences respectively to direct the expressed proteins to the inner bacterial periplasm in order to form functional monooxygenase complex. For P450 production, 200 mL E. coli cultures in Terrific Broth were incubated at 21°C with shaking at 120 RPM for 18–24 h after induction with 1 mM IPTG. Following expression, E. coli membranes containing CYP6Z3 were isolated and P450 and AgCPR content measured as previously described. Samples were stored in aliquots of 100 µL at −80°C. An. gambiae cytochrome b5 was prepared as described previously to supplement enzyme reactions at an 8:1 M ratio, b5: P450 [4].
3. Inhibition screening of pyrethroids.
Inhibition screening of pyrethroid inhibitors and IC50 calculations carried out according Yunta et al. […]

A further data set relates to CYP6P9a. To be noted: read-out: IC50 CYP6P9a; inhibition of diethoxyfluorescein metabolism; footnote b; ref Yunta et al. 2019[10]; cited from earlier work.
Another data set relates to CYP9J5. As to conditions: read-out: IC50 CYP9J5; inhibition of diethoxyfluorescein metabolism; footnote b; ref Yunta et al. 2019[10]; cited from earlier work.
A further data set concerns CYP6P3. To be noted: read-out: IC50 CYP6P3; inhibition of diethoxyfluorescein metabolism; footnote b; ref Yunta et al. 2019[10]; cited from earlier work.
For data set [2], the system named is P450 panel (CYP6M2, CYP6P3, CYP6P9a, CYP6P2, CYP9J5, CYP6Z3, CYP6Z2). Briefly: P450 inhibition, whole P450 panel (mean across P450s). The data set is classed as biochemical, Anopheles gambiae and An. funestus. To be noted: Anopheles gambiae and Anopheles funestus.
From the text: as §1, §2

For `Cc1c(F)c(F)c(COC(=O)[C@@H]2[C@H](/C=C(\Cl)C(F)(F)F)C2(C)C)c(F)c1F` (racemic) [tefluthrin], in the data set on Helicoverpa armigera, the “effect on cross-resistance, in words” value is on record as “overcame most of this resistance”.
Take `CC1(C)C(C=C(Cl)Cl)C1C(=O)OC(C#N)c1ccc(F)c(Oc2ccccc2)c1` (centres unmarked) [cyfluthrin]: in the data set on Gambiae Complex, the mortality was 50. Also, the “Mean percent mortality (SE)” value in the data set on Ae. aegypti (Pair 2 cyfluthrin vs etofenprox, N 22 paired Ae. aegypti samples) is 87.78 (3.56) percent; in the data set on Ae. aegypti (Pair 5 permethrin vs cyfluthrin, N 79 paired Ae. aegypti samples), 89.27 (1.61) percent; in the data set on Ae. aegypti (Pair 7 λ-cyhalothrin vs cyfluthrin, N 25 paired Ae. aegypti samples), 85.01 (3.81) percent; with Ae. aegypti (Pair 10 deltamethrin vs cyfluthrin, N 72 paired Ae. aegypti samples), 88.58 (1.73) percent. Further, the “susceptibility of larvae, rank in words” value in the data set on Anopheles sinensis was “most susceptible”.
As to `CC1(C)[C@H](C=C(Cl)Cl)[C@H]1C(=O)OCc1c(F)c(F)cc(F)c1F` [transfluthrin], the “effectiveness with or without piperonyl butoxide (PBO), in words” value in [1] is given as “effective in the absence of the generic P450 inhibitor”. Further, in the data set on Helicoverpa armigera, the “effect on cross-resistance, in words” value is given as “overcame most of this resistance”.
Take `CC1(C)C(C=C(Cl)Cl)C1C(=O)OC(C#N)c1cccc(Oc2ccccc2)c1` (stereo not drawn) [⍺-cypermethrin, α-cypermethrin]: the half-maximal inhibitory concentration (IC50) with CYP6P2 was 9.8 µM; against CYP6Z2, 8.6 µM; on CYP6Z3, 4.4 µM; in the data set with CYP6P9a, 4.2 µM; in the data set on CYP9J5, 13.5 µM; in the data set on CYP6P3, 2.6 µM. Further, the IC50 in data set [2] was determined as 6.4 µM. For the same compound, the mortality in the data set with Gambiae Complex is on record as 50.

Values taken from article PMC7893915, “Assessing cross-resistance within the pyrethroids in terms of their interactions with key cytochrome P450 enzymes and resistance in vector populations” (Parasites & Vectors, 2021).
